In ChEMBL document CHEMBL1128134, “Characterization of a continuous fluorogenic assay for calpain I. Kinetic evaluation of peptide aldehydes, halomethyl ketones and (acyloxy)methyl ketones as inhibitors of the enzyme” (Bioorg Med Chem Lett, 1995):
Square brackets hold non-standard residues; d marks the D form. Peptide text beside a SMILES is read from it. * marks the point of attachment. ξ: configuration not given here. 1Nal = N[C@@H](Cc1cccc2ccccc12)C(=O)O; hPhe = N[C@@H](CCc1ccccc1)C(=O)O; tBuAla = CC(C)(C)C[C@H](N)C(=O)O; Ile(3ξ) = CCC(C)[C@H](N)C(=O)O; ξPhg = NC(C(=O)O)c1ccccc1; ξTle = CC(C)(C)C(N)C(=O)O; Cbz = O=C(OCc1ccccc1)*; ξL = CC(C)CC(N)C(=O)O; CH2Cl = ClC*

What was measured:
Calpain 1 (Homo sapiens) = Calpain 1 (Homo sapiens) (UniProt P04632+P07384); assay: Apparent second order rate constant for inhibition of calpain-1 by fluorogenic assay.; format: protein-complex assay
[1] = molecular target: Cathepsin B (Homo sapiens) (UniProt P07858); assay: Apparent second order rate constant for inhibition of cathepsin B by fluorogenic assay.
[2] = molecular target: Procathepsin L (Homo sapiens) (UniProt P07711); assay: Inhibition of cathepsin L (fluorogenic assay), apparent second order rate constant
Sequence of Procathepsin L (Homo sapiens) (P07711 114-333 limits assumed): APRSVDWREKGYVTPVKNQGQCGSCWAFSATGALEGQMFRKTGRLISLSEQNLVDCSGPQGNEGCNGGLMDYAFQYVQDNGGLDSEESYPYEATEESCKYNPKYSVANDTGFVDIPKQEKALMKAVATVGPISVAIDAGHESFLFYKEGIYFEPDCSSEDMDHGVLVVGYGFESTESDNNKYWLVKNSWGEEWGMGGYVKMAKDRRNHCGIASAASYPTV

Calpain 1 = Calpain 1 (Homo sapiens, UniProt P07384); assay: Inhibition of Calpain 1 by [3H]acetyl-casein assay; format: protein-complex assay
Sequence of Calpain 1 (P04632 whole entry): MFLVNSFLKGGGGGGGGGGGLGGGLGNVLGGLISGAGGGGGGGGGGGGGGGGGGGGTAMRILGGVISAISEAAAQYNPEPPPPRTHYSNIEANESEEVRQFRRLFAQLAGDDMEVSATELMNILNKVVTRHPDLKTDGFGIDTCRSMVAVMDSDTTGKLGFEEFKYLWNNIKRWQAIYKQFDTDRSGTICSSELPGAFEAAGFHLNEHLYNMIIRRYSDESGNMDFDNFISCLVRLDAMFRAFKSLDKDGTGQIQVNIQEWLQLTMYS
Sequence of Calpain 1 (P07384 whole entry): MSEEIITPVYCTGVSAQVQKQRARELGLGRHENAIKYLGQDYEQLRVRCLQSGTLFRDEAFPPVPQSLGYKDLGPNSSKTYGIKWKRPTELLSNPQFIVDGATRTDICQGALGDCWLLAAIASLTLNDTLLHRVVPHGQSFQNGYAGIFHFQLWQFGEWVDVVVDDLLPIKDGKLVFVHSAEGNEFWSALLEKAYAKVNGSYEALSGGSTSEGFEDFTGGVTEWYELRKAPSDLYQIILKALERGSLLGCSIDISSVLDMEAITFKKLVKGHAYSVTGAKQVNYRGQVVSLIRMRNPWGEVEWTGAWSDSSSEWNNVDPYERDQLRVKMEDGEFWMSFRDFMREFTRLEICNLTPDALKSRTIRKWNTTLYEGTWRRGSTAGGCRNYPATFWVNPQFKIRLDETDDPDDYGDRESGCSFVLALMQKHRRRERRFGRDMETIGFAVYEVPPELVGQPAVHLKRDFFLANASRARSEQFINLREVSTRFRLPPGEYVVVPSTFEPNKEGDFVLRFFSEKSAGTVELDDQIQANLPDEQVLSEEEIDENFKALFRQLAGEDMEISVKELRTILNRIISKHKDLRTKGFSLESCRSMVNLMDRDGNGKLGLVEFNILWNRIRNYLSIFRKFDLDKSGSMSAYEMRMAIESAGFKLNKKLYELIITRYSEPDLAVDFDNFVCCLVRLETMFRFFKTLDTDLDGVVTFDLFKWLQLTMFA

Row | SMILES | k obs / 1 (Calpain 1 (Homo sapiens)) [M⁻¹ s⁻¹] | k obs / 1 [1] [M⁻¹ s⁻¹] | k obs / 1 [2] [M⁻¹ s⁻¹] | IC50 (Calpain 1) [µM]
1 | CC(NC(=O)C(Cc1ccccc1)NC(=O)OCc1ccccc1)C(=O)CCl (stereo unspecified) | < 500 | 220000 | – | –
2 | Cc1ccc(S(=O)(=O)NC(CC(C)C)C(=O)NC(Cc2ccccc2)C(=O)COC(=O)c2c(F)cccc2F)cc1 (stereo unspecified) | 1500 | – | – | –
3 | CC(C)CC(NC(=O)[C@@H](Cc1ccccc1)NC(=O)OCc1ccccc1)C(=O)NC(Cc1ccccc1)C(=O)COC(=O)c1c(F)cccc1F (stereo partly specified) | 1000 | 100 | 100 | –
4 | O=C[C@H](Cc1ccccc1)NC(=O)[C@H](CCc1ccccc1)NC(=O)OCc1ccccc1 (Cbz-[hPhe]-Phe-aldehyde) | – | – | – | 0.27
5 | CC(C)CC(NC(=O)OCc1ccccc1)C(=O)NC(C)C(=O)COC(=O)c1c(Cl)ccc(OCCN2CCOCC2)c1Cl (stereo unspecified) | 6000 | 58000 | – | –
6 | O=C[C@H](Cc1ccccc1)NC(=O)[C@H](Cc1cccc2ccccc12)NC(=O)OCc1ccccc1 (Cbz-[1Nal]-Phe-aldehyde) | – | – | – | > 1
7 | CC(C)C[C@H](NC(=O)CNC(=O)OCc1ccccc1)C(=O)N[C@@H](Cc1ccccc1)C(=O)CCl (Cbz-Gly-Leu-Phe-CH2Cl) | 3300 | 2700 | – | –
8 | COc1ccc(C[C@@H](C=O)NC(=O)[C@@H](NC(=O)OCc2ccccc2)C(C)C)cc1 (Cbz-Val-Tyr(Me)-aldehyde) | – | – | – | 0.03
9 | COC(=O)N[C@H](C)C(=O)NC(CC(C)C)C(=O)NC(Cc1ccccc1)C(=O)COC(=O)c1c(F)cccc1F (stereo partly specified) | 1400 | 700 | 400 | –
10 | CC(C)CC(NC(=O)OCc1ccccc1)C(=O)NC(C)C(=O)CCl (stereo unspecified) | 6000 | 43000 | – | –
11 | O=C(CNC(=O)C(Cc1ccccc1)NC(=O)OCc1ccccc1)COC(=O)c1c(Cl)cccc1Cl (stereo unspecified) | < 500 | – | – | –
12 | CC(C)CC(NC(=O)OC(C)(C)C)C(=O)NC(Cc1ccccc1)C(=O)COC(=O)c1c(F)cccc1F (stereo unspecified) | 8000 | – | – | –
13 | O=C(CNC(=O)OCc1ccccc1)NC(Cc1ccccc1)C(=O)COC(=O)c1c(Cl)cccc1Cl (stereo unspecified) | 700 | – | – | –
14 | CC(C)CC(NC(=O)OCc1ccccc1)C(=O)NC(C)C(=O)COC(=O)c1c(Cl)ccc(S(=O)(=O)N2CCOCC2)c1Cl (stereo unspecified) | 14000 | – | – | –
15 | CC(C)C[C@H](NC(=O)[C@H](C)NC(=O)OCc1ccccc1)C(=O)N[C@@H](Cc1ccccc1)C(=O)COC(=O)c1c(F)cccc1F | 19000 | 2200 | 1600 | –
16 | O=C(N[C@@H](Cc1ccccc1)C(=O)N[C@@H](Cc1ccccc1)C(=O)CCl)OCc1ccccc1 (Cbz-Phe-Phe-CH2Cl) | < 500 | – | – | –
17 | CC(C)CC(NC(=O)OCc1ccccc1)C(=O)NC(Cc1ccccc1)C(=O)COC(=O)c1c(Cl)cccc1Cl (stereo unspecified) | 11000 | 250 | 2700 | –
18 | CC(C)CC(NC(=O)CNC(=O)OCc1ccccc1)C(=O)NC(Cc1ccccc1)C(=O)COC(=O)c1c(F)cccc1F (stereo unspecified) | 15000 | 800 | 14000 | –
19 | CC(C)CC(NC(=O)[C@@H](C)NC(=O)OCc1ccccc1)C(=O)NC(Cc1ccccc1)C(=O)COC(=O)c1c(F)cccc1F (stereo partly specified) | 31000 | 100 | 300 | –
20 | NC(=O)CC(NC(=O)OCc1ccccc1)C(=O)NC(Cc1ccccc1)C(=O)CCl (stereo not drawn) (Cbz-Asn-Phe-CH2Cl; configuration not given here) | 600 | 3000 | – | –
21 | C[C@H](NC(=O)OCc1ccccc1)C(=O)N[C@H](C=O)Cc1ccccc1 | – | – | – | 0.14

Row | SMILES | k obs / 1 (Calpain 1 (Homo sapiens)) [M⁻¹ s⁻¹] | k obs / 1 [1] [M⁻¹ s⁻¹] | k obs / 1 [2] [M⁻¹ s⁻¹] | IC50 (Calpain 1) [µM]
22 | CC(C)[C@H](NC(=O)OCc1ccccc1)C(=O)N1CCC[C@H]1C=O (Cbz-Val-Pro-aldehyde) | – | – | – | > 1
23 | CC(C)CC(NC(=O)OCc1ccccc1)C(=O)NCC(=O)COC(=O)c1c(Cl)ccc(S(=O)(=O)N2CCOCC2)c1Cl (stereo unspecified) | 23000 | 260000 | 160000 | –
24 | CC(C)CC(NC(=O)OCc1ccccc1)C(=O)NC(Cc1ccc(O)cc1)C(=O)COC(=O)c1c(Cl)cccc1Cl (stereo unspecified) | 28000 | 1600 | 33000 | –
25 | CC(C)CC(NC(=O)OCc1ccccc1)C(=O)NC(Cc1ccc(O)cc1)C(=O)COC(=O)c1c(Cl)ccc(S(=O)(=O)N2CCOCC2)c1Cl (stereo unspecified) | 14000 | – | – | –
26 | CC(NC(=O)OCc1ccccc1)C(=O)NCC(=O)COC(=O)c1c(Cl)cccc1Cl (stereo unspecified) | < 500 | – | – | –
27 | CC(C)CC(NC(=O)OCc1ccccc1)C(=O)NCC(=O)COC(=O)c1c(Cl)ccc(OCCN2CCOCC2)c1Cl (stereo unspecified) | 6000 | – | – | –
28 | CC(C)CC(NC(=O)OCc1ccccc1)C(=O)NC(Cc1ccccc1)C(=O)COC(=O)c1c(F)cccc1F (stereo unspecified) | 9000 | – | – | –
29 | CC(C)CC(NC(=O)OCc1ccccc1)C(=O)NCC(=O)CCl (stereo unspecified) (Cbz-[ξL]-Gly-CH2Cl) | 31000 | 170000 | 500000 | –
30 | CC(NC(=O)C(Cc1ccccc1)NC(=O)OCc1ccccc1)C(=O)COC(=O)c1c(Cl)ccc(OCCN2CCOCC2)c1Cl (stereo unspecified) | < 500 | 150000 | 180000 | –
31 | CC(C)CC(NC(=O)OCc1ccccc1)C(=O)NC(Cc1ccc(O)cc1)C(=O)COC(=O)c1c(Cl)ccc(S(=O)(=O)CCN2CCOCC2)c1Cl (stereo unspecified) | 54000 | 2600 | 50000 | –
32 | CC(C)(C)C(NC(=O)OCc1ccccc1)C(=O)N[C@H](C=O)Cc1ccccc1 (stereo partly specified) (Cbz-[ξTle]-Phe-aldehyde) | – | – | – | 0.5
33 | CC(C)CC(C(=O)NC(Cc1ccccc1)C(=O)COC(=O)c1c(F)cccc1F)N(C)C(=O)OCc1ccccc1 (stereo unspecified) | < 500 | – | – | –
34 | CC(C)CC(NC(=O)OCc1ccccc1)C(=O)NC(Cc1ccccc1)C(=O)CCl (stereo not drawn) (Cbz-Leu-Phe-CH2Cl; configuration not given here) | 5500 | 2500 | – | –
35 | CC(C)C(NC(=O)OCc1ccccc1)C(=O)NC(Cc1ccccc1)C(=O)COC(=O)c1c(Cl)ccc(S(=O)(=O)CCN2CCOCC2)c1Cl (stereo unspecified) | 20000 | 5500 | 63000 | –
36 | CC(C)C(NC(=O)OCc1ccccc1)C(=O)NCC(=O)COC(=O)c1c(Cl)ccc(S(=O)(=O)NCC(=O)OCc2ccccc2)c1Cl (stereo unspecified) | 12000 | 600000 | 120000 | –
37 | Cc1cccc(C)c1C(=O)OCC(=O)C(Cc1ccccc1)NC(=O)C(NC(=O)OCc1ccccc1)C(C)C (stereo unspecified) | 700 | – | – | –
38 | CC(C)CC(NC(=O)OCc1ccccc1)C(=O)NC(Cc1ccccc1)C(=O)COC(=O)c1c(Cl)ccc(S(=O)(=O)N2CCOCC2)c1Cl (stereo unspecified) | 17000 | – | – | –
39 | CC(C)CC(NC(=O)OCc1ccccc1)C(=O)NC(Cc1ccccc1)C(=O)COC(=O)c1c(Cl)ccc(S(=O)(=O)CCN2CCOCC2)c1Cl (stereo unspecified) | 30000 | 80 | 38000 | –
40 | CC(C)(C)C[C@H](NC(=O)OCc1ccccc1)C(=O)N[C@H](C=O)Cc1ccccc1 (Cbz-[tBuAla]-Phe-aldehyde) | – | – | – | 0.1
41 | CC(C)[C@H](NC(=O)OCc1ccccc1)C(=O)N[C@H](C=O)Cc1cccc2ccccc12 (Cbz-Val-[1Nal]-aldehyde) | – | – | – | 0.1
42 | O=C[C@H](Cc1ccccc1)NC(=O)[C@H](Cc1ccccc1)NC(=O)OCc1ccccc1 (Cbz-Phe-Phe-aldehyde) | – | – | – | 0.4

Row | SMILES | k obs / 1 (Calpain 1 (Homo sapiens)) [M⁻¹ s⁻¹] | k obs / 1 [1] [M⁻¹ s⁻¹] | k obs / 1 [2] [M⁻¹ s⁻¹] | IC50 (Calpain 1) [µM]
43 | CC(C)C[C@H](NC(=O)OCc1ccccc1)C(=O)N[C@H](C=O)Cc1ccc(O)cc1 (Cbz-Leu-Tyr-aldehyde) | – | – | – | 0.02
44 | CCC(C)[C@H](NC(=O)OCc1ccccc1)C(=O)N[C@H](C=O)Cc1ccc(O)cc1 (stereo partly specified) (Cbz-[Ile(3ξ)]-Tyr-aldehyde) | – | – | – | 0.055
45 | CC(C)CC(NC(=O)OCc1ccccc1)C(=O)NC(Cc1ccc(O)cc1)C(=O)COC(=O)c1c(F)cccc1F (stereo unspecified) | 7000 | – | – | –
46 | CC(=O)Nc1cccc(Cl)c1C(=O)OCC(=O)C(C)NC(=O)C(CC(C)C)NC(=O)OCc1ccccc1 (stereo unspecified) | 500 | – | – | –
47 | CC(C)[C@H](NC(=O)OCc1ccccc1)C(=O)N[C@H](C=O)CCc1ccccc1 (Cbz-Val-[hPhe]-aldehyde) | – | – | – | 0.1
48 | CC(NC(=O)C(Cc1ccccc1)NC(=O)OCc1ccccc1)C(=O)COC(=O)c1c(Cl)cccc1Cl (stereo unspecified) | < 500 | 360000 | 104000 | –
49 | CC(C)CC(NC(=O)OCc1ccccc1)C(=O)NCC(=O)COC(=O)c1c(Cl)cccc1Cl (stereo unspecified) | 6000 | – | – | –
50 | CC(C)C[C@H](NC(=O)OCc1ccccc1)C(=O)N[C@H](C=O)Cc1ccccc1 (Cbz-Leu-Phe-aldehyde) | – | – | – | 0.035
51 | CC(C)C[C@H](NC(=O)OCc1ccccc1)C(=O)N[C@@H](CC(C)C)C(=O)N[C@@H](Cc1ccccc1)C(=O)CCl (Cbz-Leu-Leu-Phe-CH2Cl) | 9500 | 30000 | – | –
52 | O=C(CNC(=O)OCc1ccccc1)NC(Cc1ccccc1)C(=O)COC(=O)c1c(Cl)ccc(S(=O)(=O)NCC(=O)OCc2ccccc2)c1Cl (stereo unspecified) | 900 | – | – | –
53 | CC(C)C(NC(=O)OCc1ccccc1)C(=O)NC(Cc1ccccc1)C(=O)COC(=O)c1c(Cl)cccc1Cl (stereo unspecified) | 11000 | – | – | –
54 | CC(C)CC(NC(=O)[C@@H](C)NC(=O)OCc1ccccc1)C(=O)NCC(=O)COC(=O)c1c(Cl)ccc(OCCN2CCOCC2)c1Cl (stereo partly specified) | < 500 | – | – | –
55 | CC(C)C[C@H](NC(=O)OCc1ccccc1)C(=O)N[C@@H](Cc1ccc(O)cc1)C(=O)CBr | < 500 | 50 | – | –
56 | O=C[C@H](Cc1ccccc1)NC(=O)C(NC(=O)OCc1ccccc1)c1ccccc1 (stereo partly specified) (Cbz-[ξPhg]-Phe-aldehyde) | – | – | – | 0.1
57 | CC(C)CC(NC(=O)[C@@H](C)NC(=O)OCc1ccccc1)C(=O)NC(Cc1ccccc1)C(=O)COC(=O)c1c(Cl)ccc(OCCN2CCOCC2)c1Cl (stereo partly specified) | 32000 | 400 | 28000 | –
58 | CC(C)C[C@H](NC(=O)[C@@H]1CCCN1C(=O)OCc1ccccc1)C(=O)N[C@@H](Cc1ccccc1)C(=O)COC(=O)c1c(F)cccc1F | 26500 | 11000 | – | –
59 | CC(C)C(NC(=O)OCc1ccccc1)C(=O)NCC(=O)COC(=O)c1c(Cl)cccc1Cl (stereo unspecified) | 800 | – | – | –
60 | CC(=O)Nc1cccc(Cl)c1C(=O)OCC(=O)CNC(=O)C(CC(C)C)NC(=O)OCc1ccccc1 (stereo unspecified) | 600 | – | – | –
61 | CC(C)CC(NC(=O)OCc1ccccc1)C(=O)NC(Cc1ccc(O)cc1)C(=O)CCl (stereo not drawn) (Cbz-Leu-Tyr-CH2Cl; configuration not given here) | 1500 | 2000 | – | –
62 | COC(=O)N[C@H](C)C(=O)NC(CC(C)C)C(=O)NC(Cc1ccccc1)C(=O)COC(=O)c1c(Cl)ccc(OCCN2CCOCC2)c1Cl (stereo partly specified) | 43000 | 4700 | 90000 | –
